Earlier results in US6071925A (priority 1997, dated 2000).

How the values were obtained:
LC 132 receptor = conditions: CHO(LC 132+) cells in culture
mice [1] = conditions: intra-cerebroventricular
mice [2] = conditions: intra-cerebroventricular; remark: listed apart in the source

## OFQ: seventeen amino-acid-long peptide (F-G-G-F-T-G-A-R-K-S-A-R-K-L-A-N-Q), natural ligand for the G-protein coupled receptor OFQ-R
LC 132 receptor
  effect on adenylate cyclase: inhibits adenylate cyclase
Mice [1]
  effect on nociception: induces hyperalgesia
Mice [2]
  effect on locomotive activity: slowed down locomotive activity
